Like-named read-outs stand apart in the source and are kept apart here.
What was measured:
RPMI-8226 = test: NCI one-dose assay; type: cell-based; details: Homo sapiens, RPMI-8226, Leukemia, read-out: Cell growth inhibition %
OVCAR-8 = test: NCI one-dose assay; type: cell-based; details: Homo sapiens, OVCAR-8, Ovarian cancer, read-out: Cell growth inhibition %
UACC-62 = test: NCI one-dose assay; type: cell-based; details: Homo sapiens, UACC-62, Melanoma, read-out: Cell growth inhibition %
TK-10 = test: NCI one-dose assay; type: cell-based; details: Homo sapiens, TK-10, Renal cancer, read-out: Cell growth inhibition %
SK-MEL-5 = test: NCI one-dose assay; type: cell-based; details: Homo sapiens, SK-MEL-5, Melanoma, read-out: Cell growth inhibition %
PC-3 = test: NCI one-dose assay; type: cell-based; details: Homo sapiens, PC-3, Prostate cancer, read-out: Cell growth inhibition %
MDA-MB-435 = test: NCI one-dose assay; type: cell-based; details: Homo sapiens, MDA-MB-435, Melanoma, read-out: Cell growth inhibition %
OVCAR-5 = test: NCI one-dose assay; type: cell-based; details: Homo sapiens, OVCAR-5, Ovarian cancer, read-out: Cell growth inhibition %
NCI-H460 = test: NCI one-dose assay; type: cell-based; details: Homo sapiens, NCI-H460, Non-small cell lung cancer, read-out: Cell growth inhibition %
NCI-H23 = test: NCI one-dose assay; type: cell-based; details: Homo sapiens, NCI-H23, Non-small cell lung cancer, read-out: Cell growth inhibition %
MALME-3M = test: NCI one-dose assay; type: cell-based; details: Homo sapiens, Melanoma, read-out: Cell growth inhibition %
NCI-H226 = test: NCI one-dose assay; type: cell-based; details: Homo sapiens, NCI-H226, Non-small cell lung cancer, read-out: Cell growth inhibition %
RXF 393 = test: NCI one-dose assay; type: cell-based; details: Homo sapiens, RXF 393, Renal cancer, read-out: Cell growth inhibition %
SF-539 = test: NCI one-dose assay; type: cell-based; details: Homo sapiens, SF-539, CNS cancer, read-out: Cell growth inhibition %
U251 = test: NCI one-dose assay; type: cell-based; details: Homo sapiens, U-251, U251, CNS cancer, read-out: Cell growth inhibition %
IGROV1 = test: NCI one-dose assay; type: cell-based; details: Homo sapiens, IGROV-1, IGROV1, Ovarian cancer, read-out: Cell growth inhibition %
NCI/ADR-RES = test: NCI one-dose assay; type: cell-based; details: Homo sapiens, Ovarian cancer, read-out: Cell growth inhibition %
SNB-75 = test: NCI one-dose assay; type: cell-based; details: Homo sapiens, SNB-75, CNS cancer, read-out: Cell growth inhibition %
HOP-92 = test: NCI one-dose assay; type: cell-based, human; details: for inhibition at 10 µM: Homo sapiens, HOP-92, HOP-92, Non-small cell lung cancer, read-out: Cell growth inhibition %
Experimental: (§1) The National Cancer Institute (NCI), Bethesda, USA, selected the final compounds 6a–j and 7a–j for in vitro anticancer screening. An initial in vitro single-dose anticancer experiment was performed with the entire NCI 60 cell lines derived from nine tumor subpanel cancer cell lines. The results for each compound were illustrated as a mean graph showing the percentage growth of treated cells compared to untreated control cells (see Supplementary Materials).
(§2) The NCI anticancer screening process has been thoroughly detailed. The Drug Evaluation Branch of the National Cancer Institute in Bethesda, […], USA, established the procedure and conducted the anticancer assay on 60 human tumor cell lines from nine neoplastic cancers.

786-0 = test: NCI one-dose assay; type: cell-based, human; details: Homo sapiens, 786-0, 786-0, Renal cancer, read-out: Cell growth inhibition %
Experimental: as §1, §2

UO-31 = test: NCI one-dose assay; type: cell-based, human; details: for inhibition at 10 µM: Homo sapiens, UO-31, UO-31, Renal cancer, read-out: Cell growth inhibition %; for Cell growth inhibition %: UO-31, Renal cancer, 10 µM
Experimental: as §1, §2

NCI 60 cell lines = test: NCI one-dose assay, full panel; type: cell-based, human; details: for anticancer activity (in words): across all cell lines, 10 µM; for inhibition at 10 µM: Homo sapiens
Experimental: as §1, §2

| Compound | inhibition at 10 µM (RPMI-8226) [%] | inhibition at 10 µM (OVCAR-8) [%] | inhibition at 10 µM (UACC-62) [%] | inhibition at 10 µM (TK-10) [%] | inhibition at 10 µM (SK-MEL-5) [%] | inhibition at 10 µM (PC-3) [%] | inhibition at 10 µM (MDA-MB-435) [%] | inhibition at 10 µM (OVCAR-5) [%] | inhibition at 10 µM (NCI-H460) [%] | inhibition at 10 µM (NCI-H23) [%] | inhibition at 10 µM (MALME-3M) [%] | inhibition at 10 µM (NCI-H226) [%] | inhibition at 10 µM (RXF 393) [%] | inhibition at 10 µM (SF-539) [%] | inhibition at 10 µM (U251) [%] | inhibition at 10 µM (IGROV1) [%] | inhibition at 10 µM (NCI/ADR-RES) [%] | inhibition at 10 µM (SNB-75) [%] | inhibition at 10 µM (HOP-92) [%] | inhibition at 10 µM (786-0) [%] | further results |
| --- | --- | --- | --- | --- | --- | --- | --- | --- | --- | --- | --- | --- | --- | --- | --- | --- | --- | --- | --- | --- | --- |
| C=CCn1c(SCC(=O)c2ccccc2)nnc1-c1c[nH]c2ccccc12 [Compound 6a, 2-((4-Allyl-5-(1H-indol-3-yl)-4H-1,2,4-triazol-3-yl)thio)-1-phenylethanone] | 13.4 | 4.58 | 18.5 | -43.9 | 3.38 | 10.9 | -5.02 | -3.17 | -6.84 | 0.39 | 13.4 | 12.2 | -2.2 | 2.68 | -7.24 | 11.6 | 2.62 | 3.62 | 18.7 | -1.07 | inhibition at 10 µM (UO-31): 35%; Cell growth inhibition % (UO-31): 34.27% |
| C=CCn1c(SCC(=O)c2ccc(Br)cc2)nnc1-c1c[nH]c2ccccc12 [Compound 6d, 2-((4-Allyl-5-(1H-indol-3-yl)-4H-1,2,4-triazol-3-yl)thio)-1-(4-bromophenyl)ethenone] | 1.17 | 5.3 | 16.9 | -34.3 | 4.07 | 21.7 | -8.05 | 3.19 | -6.13 | 4.98 | 9.34 | 9.93 | -12.8 | 8.23 | 0.12 | 13.3 | 1.17 | -6.14 | 8.6 | 1.44 | anticancer activity (in words) (NCI 60 cell lines): minimal anticancer activity; inhibition at 10 µM (UO-31): 31.6% |
| C=CCn1c(SC/C(=N\O)c2ccc(Br)cc2)nnc1-c1c[nH]c2ccccc12 [Compound 7d, (Z)-2-((4-allyl-5-(1H-indol-3-yl)-4H-1,2,4-triazol-3-yl)thio)-1-(4-bromophenyl) Ethanone Oxime] | 37.9 | 18.3 | 36.3 | 12.9 | 40.9 | 31.6 | 11.5 | 6.82 | 19.7 | 17.9 | 4.84 | 33.6 | 19.3 | 14 | 5.15 | 30.8 | 6.71 | 6.02 | 21 | 13.4 | inhibition at 10 µM (NCI 60 cell lines; 60 cell, eleven cell lines, read-out: growth inhibition percentage, range): 34 to 47%; inhibition at 10 µM (UO-31): 38.3% |
| C=CCn1c(SC/C(=N\O)c2ccc(C)cc2)nnc1-c1c[nH]c2ccccc12 [Compound 7c, (Z)-2-((4-allyl-5-(1H-indol-3-yl)-4H-1,2,4-triazol-3-yl)thio)-1-(p-tolyl)ethanone Oxime] | 8.76 | 8.49 | 30.9 | -26.8 | 11.1 | 7.62 | -2.07 | 1.32 | 9.2 | 9.29 | 9.17 | 23.1 | -5.46 | -1.42 | -2.94 | 23.2 | 1.27 | 2.58 | 7.98 | -2.2 | inhibition at 10 µM (UO-31): 35%; Cell growth inhibition % (UO-31): 34.99% |
| C=CCn1c(SCC(=NO)c2ccc(OC)cc2)nnc1-c1c[nH]c2ccccc12 [Compound 7b, 2-((4-allyl-5-(1H-indol-3-yl)-4H-1,2,4-triazol-3-yl)thio)-1-(4-methoxyphenyl) Ethanone Oxime] | 14.9 | 7.1 | 20.9 | -27.2 | 10.5 | 14.9 | -10.6 | -4.1 | 5.34 | 4.86 | 3.2 | 14.9 | -12.1 | 4.37 | -5.26 | 17.6 | -3.18 | -12.9 | 8.91 | 0.73 | anticancer activity (in words) (NCI 60 cell lines): minimal anticancer activity; inhibition at 10 µM (UO-31): 19.2% |
| C=CCn1c(SC/C(=N\O)c2ccc(Cl)cc2)nnc1-c1c[nH]c2ccccc12 [Compound 7e, (Z)-2-((4-allyl-5-(1H-indol-3-yl)-4H-1,2,4-triazol-3-yl)thio)-1-(4-chlorophenyl) Ethanone Oxime] | 29.7 | 16.8 | 35.8 | 1.28 | 27.4 | 24.4 | 10.7 | -2.62 | 24.7 | 17.4 | 15.6 | 30.4 | 5.62 | 5.14 | 1.78 | 29.7 | 3.86 | 4.75 | 26.5 | 11.1 | inhibition at 10 µM (NCI 60 cell lines; HL-60(TB), K-562, MOLT-4, HCT-116, UACC-62, UO-31, T-47D, MDA-MB-468, read-out: growth inhibition percentage, range): 35 to 46.5%; inhibition at 10 µM (UO-31): 39.5% |
| C=CCn1c(SC/C(=N\O)c2ccccc2)nnc1-c1c[nH]c2ccccc12 [Compound 7a, (Z)-2-((4-Allyl-5-(1H-indol-3-yl)-4H-1,2,4-triazol-3-yl)thio)-1-phenylethanone Oxime] | 0.38 | 1.16 | 13.6 | -12.2 | 1.57 | 9.77 | -5.56 | -3.15 | 3.34 | -1.28 | 7.6 | 12.1 | -4.5 | 3.26 | 4.62 | 7.6 | -6.66 | -3.17 | 5.05 | 4.91 | anticancer activity (in words) (NCI 60 cell lines): minimal anticancer activity; inhibition at 10 µM (UO-31): 20.9% |
| C=CCn1c(SCC(=O)c2ccc(C)cc2)nnc1-c1c[nH]c2ccccc12 [Compound 6c, 2-((4-allyl-5-(1H-indol-3-yl)-4H-1,2,4-triazol-3-yl)thio)-1-(p-tolyl)ethanone] | 13.8 | 10.4 | 24.7 | -39.1 | 6.71 | 22.2 | -2.15 | -2.57 | 1.59 | -5.98 | 10.5 | 17.1 | -0.07 | 1.45 | 6.75 | 19.6 | 4.65 | -4.77 | 50 | 2.26 | Cell growth inhibition % (HOP-92; HOP-92, Non-small cell lung cancer, 10 µM): 49.73%; inhibition at 10 µM (UO-31): 29.7% |

— PMC11859928, “Design, Synthesis, and Antiproliferative Activity of Novel Indole/1,2,4-Triazole Hybrids as Tubulin Polymerization Inhibitors” (Pharmaceuticals, 2025)
